Key:
spleen of CD1 mice = experiment: Spleen size (spleen weight) after intraperitoneal injection; assay type: in vivo, mouse
Description: (§1) Male CD1 mice (4-5 weeks, 20-22 g, Charles river, Wilmington, Mass.) were used in this study. The animals were fed with commercial diet and water ad libidum and were kept at the animal facility of the University of Massachusetts Medical Center (Worcester, Mass.). For in vivo studies, phosphorothioate oligonucleotides (final concentration 4 mg/ml) were mixed with 5% of the cyclodextrin HPCD or HECD in sterile PBS, sonicated at 4° C. for 1 hour, followed by incubation at 4° C. overnight. The phosphorothioate oligonucleotide, either in plain PBS or mixed with cyclodextrin, was injected into mice intraperitoneally, in a volume of 0.25 ml (1 mg/mouse). After 24 hr (in the case of the phosphorothioate oligonucleotide of SEQ ID NO:4) and 48 hr (in the case of the phosphorothioate oligonucleotide of SEQ ID NO:2), mice were sacrificed and spleens were collected and prepared for further studies. Two or three mice were studied for each condition and analyzed individually.

[1] = tested on: spleen lymphocytes of CD1 mice; experiment: Immunoglobulin synthesis (IgG/IgM ELISA) by spleen cells of in vivo treated mice; set-up: species or system mouse
Description: as §1
Spleens from in vivo treated mice were harvested and single cell suspensions were set in culture at a density of 10^6 cells/ml, in 1 ml RPMI complete medium. […] The optical density (405 nm) was measured using an automatic ELISA plate reader (Bio-Tek Instruments, Inc). IgG and IgM levels were calculated based on the standard curve. […]

HIV-1 = conditions: background statement; cited from earlier work
spleen cells of CD1 mice = experiment: Cell cycle analysis of spleen cells from in vivo treated mice; set-up: species or system mouse
Description: as §1, with “The phosphorothioate oligonucleotide, either in plain PBS or mixed with cyclodextrin, was injected into mice intraperitoneally, in a volume of 0.25 ml (1 mg/mouse).” left out
Spleens from in vivo treated mice were harvested and single cell suspensions were set in culture in RPMI complete medium (10^6 cells/tube in 1 ml RPMI). After 4 hours of culture, cells were washed with FACS buffer and fixed for cell cycle analysis as described above. The experiments were done in duplicate.

[2] = tested on: murine splenic lymphocytes; experiment: Cell cycle analysis, in vitro (propidium iodide flow cytometry); assay type: cell-based, mouse; conditions: 48 hours, oligonucleotide 10 μg/ml, cyclodextrin 0.5%
mouse splenocytes = experiment: Splenic cell proliferation assay, [3H]-thymidine incorporation; assay type: cell-based; conditions: for cell proliferation ([3H]-thymidine incorporation): oligonucleotide alone, FIG. 1 / FIG. 3 (SEQ ID NO:4 at 1 or 10 μg/ml)
Description: Mouse spleen was taken from male CD1 mouse (4-5 weeks, Charles River, Wilmington, Mass.). Single cell suspensions were prepared by gently mincing with frosted ends of glass slides, washed twice, and then resuspended in RPMI complete medium [RPMI 1640 medium supplemented with 10%-heat inactivated (56° C. for 30 minutes) fetal bovine serum, 2 mM glutamine, 100 μg/ml streptomycin, 100 U/ml penicillin, and 50 μM 2-mercaptoethanol]. The cells were then plated in 96-well dishes at a density of 10^6 cells/ml, in a final volume of 100 μl. Oligonucleotides were added to the cell culture in 10 μl of TE buffer (10 mM Tris-HCL pH 7.5, 1 mM EDTA). Cyclodextrin analogs: 2-hydroxypropyl-βcyclodextrin (HPCD, degree of substitution 5-8), hydroxyethyl-β cyclodextrin (HECD, degree of substitution 15), and Encapsin (which is a mixture of hydroxypropyl β-cyclodextrin but has a different degree of substitution, 17.8), were purchased pyrogen free (Amaizo, Hammond, Ind.) and were added to the cells at concentration of 0.5% in RPMI medium except where indicated. Cells were then set to culture in a 37° C., 5% CO2-[…], humidified air incubator for further studies. The experiments were done in triplicate.
After 44 hours, cells were pulsed-labeled with 1 μCi [^3H]-thymidine/well (in 20 μl of RPMI medium) for 4 hours. Cells were then harvested by an automatic cell harvester (Skatron, Sterling, Va.) and the filters were counted using a scintillation counter. […] All the three cyclodextrin analogs reduced cell proliferation to similar levels.

[3] = tested on: immunostimulatory response; conditions: known from the literature; cited from earlier work
CD1 mice = experiment: Toxicity observation after intraperitoneal injection; assay type: in vivo, mouse; conditions: i.p. 50 mg/Kg
Description: as §1
Similar experiments were performed with the phosphorothioate oligonucleotide of SEQ ID NO:4. […] In order to reduce the toxicity, 25 mg/Kg of the phosphorothioate oligonucleotide of SEQ ID NO:4 was injected into the animals.

[4] = i.p. 1 mg/mouse (50 mg/Kg), 48 hr

Substance: 2-hydroxypropyl-β-cyclodextrin [HPCD]
- spleen weight compared to PBS-treated mice (spleen of CD1 mice; 5% HPCD alone): no effect on spleen weight

Substance: SEQ ID NO:2: phosphorothioate oligodeoxynucleotide complementary to the rev region of HIV-1; induces an immunostimulatory response (TCGTCGCTGTCTCCGCTTCTTCTTGCC; DNA, all phosphorothioate, methylation of C not given here)
- production of IgG and IgM ([1]; SEQ ID NO:2, 48 hours after injection, FIG. 5): highly significant increase
- HIV-1 replication (HIV-1): inhibit HIV-1 replication
- spleen weight relative to PBS-treated mice (spleen of CD1 mice; i.p. 1 mg/mouse, 48 hr, FIG. 4): about 1.5 times
- % cells in G0/G1 (spleen cells of CD1 mice; [4]): 82.0 ± 1.2%
- % cells in G2/S (spleen cells of CD1 mice; [4]): 18.0 ± 1.2%
- % cells in G0/G1 [2]: 77.7 ± 1.0%
- % cells in G2/S [2]: 22.3 ± 1.0%
- Increase (cells in S/G2 phases compared with medium alone) [2]: 44.8%
- change in [3H] thymidine incorporation (mouse splenocytes; 0.1 μg/ml oligonucleotide, FIG. 1): no significant change
- cell proliferation ([3H]-thymidine incorporation) (mouse splenocytes): increases cell proliferation in a concentration-dependent manner

Substance: SEQ ID NO:3: phosphorothioate oligonucleotide that binds to the human p53 oncogene (CCCTGCTCCCCCCTGGCTCC; all phosphorothioate, sugars by position and methylation of C not given here)
- immunostimulatory effect [3]: does not induce an immunostimulatory effect

Substance: SEQ ID NO:4: phosphorothioate oligonucleotide, 20-mer that contains multiple 5′-CG-3′ motifs (GAGAACGCTCGACCTTCGAT; all phosphorothioate, sugars by position and methylation of C not given here)
- increase in production of IgG and IgM antibodies ([1]; SEQ ID NO:4, FIG. 7): approximately 10 fold
- toxicity observation (CD1 mice): noticeable bloody exudate and congestion in abdominal cavities
- splenomegaly / spleen weight (spleen of CD1 mice; SEQ ID NO:4 i.p., 24 hr, FIG. 6): induced splenomegaly
- immunostimulatory effect [3]: induce an immunostimulatory response both in vitro and in vivo
- % cells in G0/G1 (spleen cells of CD1 mice; i.p. 25 mg/Kg, 24 hr): 68.5 ± 0.5%
- % cells in G2/S (spleen cells of CD1 mice; i.p. 25 mg/Kg, 24 hr): 22.7 ± 0.5%
- Increase (cells in G2/S compared with PBS) (spleen cells of CD1 mice; i.p. 25 mg/Kg, 24 hr): 41%
- stimulation of cell proliferation (cell cycle analysis) (spleen cells of CD1 mice; i.p. 25 mg/Kg, 24 hr): stimulated cell proliferation
- cell proliferation ([3H]-thymidine incorporation) (mouse splenocytes): dramatic increase in cell proliferation
